Patent US8816085B2 (Takeda GmbH, priority 2009, dated 2014)

Molecular target: T1, PDE5A1 (human PDE5 from platelets) (Homo sapiens, UniProt O76074)
T1 construct: from tissue; host or cells: platelets from fresh blood of human donors (10,000 g supernatant of sonified platelets)
Assay: Inhibition of type 5 phosphodiesterase (PDE5) activity, modified SPA test
Type: biochemical
Details: PDE5-containing human platelet lysate, 0.5 μM cGMP, value classes, read-out: PDE5A1 inhibitory values [measured as −logIC50 (mol/l)] (converted)
In short: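 Enzyme source: human platelet lysate (10,000 g supernatant), with 1 μM motapizone and 10 nM PDE2 inhibitor present. SPA format in 20 mM Tris pH 7.4, 5 mM Mg2+, 0.5 μM cGMP with [3H]cGMP tracer; 5 min preincubation at 37 °C, 15 min reaction, stopped with IBMX-containing beads. IC50 by non-linear regression.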

For `COc1cc(-c2ccnc3c(C(=O)NC4CCN(C(C)=O)CC4)c(C)[nH]c23)c(OCC2CC2)cc1F` [Example E61, N-(1-Acetylpiperidin-4-yl)-7-[2-(cyclopropylmethoxy)-4-fluoro-5-methoxyphenyl]-2-methyl-1H-pyrrolo[3,2-b]pyridine-3-carboxamide], which IC50 is on record?
Its IC50 is under 1 nM.

For `COc1cc(OCC2CC2)c(-c2ccnc3c(C(=O)N[C@H]4CC[C@@H](NC(C)=O)CC4)c(C)[nH]c23)cc1F` [Example E82, N-(cis-4-Acetamidocyclohexyl)-7-[2-(cyclopropylmethoxy)-5-fluoro-4-methoxyphenyl]-2-methyl-1H-pyrrolo[3,2-b]pyridine-3-carboxamide], which IC50 is on record?
The IC50 was under 1 nM.

Which IC50 does the source give for `COc1ccc(OCC2CC2)c(-c2ccnc3c(C(=O)NC4CCN(C(=O)CO)CC4)c(C)[nH]c23)c1` [Example F26, 7-[2-(Cyclopropylmethoxy)-5-methoxyphenyl]-N-[1-(hydroxyacetyl)piperidin-4-yl]-2-methyl-1H-pyrrolo[3,2-b]pyridine-3-carboxamide] here?
The IC50 was 1 to 10 nM.

Which IC50 does the source give for `COc1ccc(OCC2CC2)c(-c2ccnc3c(C(=O)NC4CCN(C(=O)[C@H](C)O)CC4)c(C)[nH]c23)c1` [Example F27, 7-[2-(Cyclopropylmethoxy)-5-methoxyphenyl]-N-{1-[(2S)-2-hydroxypropanoyl]piperidin-4-yl}-2-methyl-1H-pyrrolo[3,2-b]pyridine-3-carboxamide] here?
Its IC50 is under 1 nM.

For `COc1cc(OCC2CC2)c(-c2ccnc3c(C(=O)N[C@H]4CC[C@H](NC(=O)CO)CC4)c(C)[nH]c23)cc1F` [Example F52, 7-[2-(Cyclopropylmethoxy)-5-fluoro-4-methoxyphenyl]-N-[trans-4-(glycoloylamino)cyclohexyl]-2-methyl-1H-pyrrolo[3,2-b]pyridine-3-carboxamide], which IC50 is on record?
The IC50 was under 1 nM.

For `COc1ccc(-c2ccnc3c(C(=O)N[C@H]4CC[C@H](NC(=O)CO)CC4)c(C)[nH]c23)c(OCC2CC2)c1` [Example F22, 7-[2-(Cyclopropylmethoxy)-4-methoxyphenyl]-N-{trans-4-[(hydroxyacetyl)amino]cyclohexyl}-2-methyl-1H-pyrrolo[3,2-b]pyridine-3-carboxamide], which IC50 is on record?
The IC50 was under 1 nM.

Which IC50 does the source give for `COCC(=O)N[C@H]1CC[C@@H](NC(=O)c2c(C)[nH]c3c(-c4cc(F)ccc4OCC4CC4)ccnc23)CC1` [Example E27, 7-[2-(Cyclopropylmethoxy)-5-fluorophenyl]-N-{cis-4-[(methoxyacetyl)amino]cyclohexyl}-2-methyl-1H-pyrrolo[3,2-b]pyridine-3-carboxamide] here?
The IC50 was 1 to 10 nM.

How did the IC50 turn out when `CC(=O)N1CC[C@@H](NC(=O)c2c(C)[nH]c3c(-c4cc(F)ccc4OCC4CC4)ccnc23)[C@H](O)C1` (relative stereo) [Example E28, N-[(3R*,4R*)-1-Acetyl-3-hydroxypiperidin-4-yl]-7-[2-(cyclopropylmethoxy)-5-fluorophenyl]-2-methyl-1H-pyrrolo[3,2-b]pyridine-3-carboxamide] was run?
The IC50 was 1 to 10 nM.

Which IC50 does the source give for `COc1ccc(OCC2CC2)c(-c2ccnc3c(C(=O)NC4CN(C(=O)C(C)O)CC4O)c(C)[nH]c23)c1` (mixture of isomers) [Example F33, Diastereomeric mixture of 7-[2-(Cyclopropylmethoxy)-5-methoxyphenyl]-N-{(3R*,4R*)-4-hydroxy-1-[(2S)-2-hydroxypropanoyl]pyrrolidin-3-yl}-2-methyl-1H-pyrrolo[3,2-b]pyridine-3-carboxamide and Diastereomeric mixture of 7-[2-(cyclopropylmethoxy)-5-methoxyphenyl]-N-{(3S*,4S*)-4-hydroxy-1-[(2S)-2-hydroxypropanoyl]pyrrolidin-3-yl}-2-methyl-1H-pyrrolo[3,2-b]pyridine-3-carboxamide] here?
The IC50 was 1 to 10 nM.

For `COCC(=O)N1CCC(NC(=O)c2c(C)[nH]c3c(-c4cc(OC)ccc4OCC4CC4)ccnc23)CC1` [Example E42, 7-[2-(cyclopropylmethoxy)-5-methoxyphenyl]-N-[1-(methoxyacetyl)piperidin-4-yl]-2-methyl-1H-pyrrolo[3,2-b]pyridine-3-carboxamide], which IC50 is on record?
The IC50 was 1 to 10 nM.

For `COCC(=O)N[C@H]1CC[C@@H](NC(=O)c2c(C)[nH]c3c(-c4cc(OC)ccc4OCC4CC4)ccnc23)CC1` [Example E48, 7-[2-(Cyclopropylmethoxy)-5-methoxyphenyl]-N-{cis-4-[(methoxyacetyl)amino]cyclohexyl}-2-methyl-1H-pyrrolo[3,2-b]pyridine-3-carboxamide], which IC50 is on record?
The IC50 was 1 to 10 nM.

`COCC(=O)N[C@H]1CC[C@@H](NC(=O)c2c(C)[nH]c3c(-c4c(OCC5CC5)ccc5c4OCO5)ccnc23)CC1` [Example E08, 7-[5-(Cyclopropylmethoxy)-1,3-benzodioxol-4-yl]-N-{cis-4-[(methoxyacetyl)amino]cyclohexyl}-2-methyl-1H-pyrrolo[3,2-b]pyridine-3-carboxamide] was tested. Which IC50 did it give?
The IC50 was under 1 nM.

For `CCC(=O)N1CCC(NC(=O)c2c(C)[nH]c3c(-c4cc(F)c(OC)cc4OCC4CC4)ccnc23)CC1` [Example E77, 7-[2-(Cyclopropylmethoxy)-5-fluoro-4-methoxyphenyl]-2-methyl-N-(1-propionylpiperidin-4-yl)-1H-pyrrolo[3,2-b]pyridine-3-carboxamide], which IC50 is on record?
The IC50 was under 1 nM.

For `Cc1ccc(OCC2CC2)c(-c2ccnc3c(C(=O)N[C@H]4CC[C@H](NC(=O)CO)CC4)c(C)[nH]c23)c1` [Example F36, 7-[2-(Cyclopropylmethoxy)-5-methylphenyl]-N-{trans-4-[(hydroxyacetyl)amino]cyclohexyl}-2-methyl-1H-pyrrolo[3,2-b]pyridine-3-carboxamide], which IC50 is on record?
Its IC50 is 1 to 10 nM.

How did the IC50 turn out when `COc1cc(-c2ccnc3c(C(=O)N[C@@H]4CN(C(C)=O)C[C@H]4O)c(C)[nH]c23)c(OCC2CC2)cc1F` (relative stereo) [Example E70, N-[(3R*,4R*)-1-Acetyl-4-hydroxypyrrolidin-3-yl]-7-[2-(cyclopropylmethoxy)-4-fluoro-5-methoxyphenyl]-2-methyl-1H-pyrrolo[3,2-b]pyridine-3-carboxamide] was run?
The IC50 was under 1 nM.

How did the IC50 turn out when `CCC(=O)N1CCC(NC(=O)c2c(C)[nH]c3c(-c4ccc(OC)cc4OCC4CC4)ccnc23)CC1` [Example E32, 7-[2-(Cyclopropylmethoxy)-4-methoxyphenyl]-2-methyl-N-(1-propanoylpiperidin-4-yl)-1H-pyrrolo[3,2-b]pyridine-3-carboxamide] was run?
The IC50 was under 1 nM.

For `COCC(=O)N[C@H]1CC[C@H](NC(=O)c2c(C)[nH]c3c(-c4cc(F)c(OC)cc4OCC4CC4)ccnc23)CC1` [Example E81, 7-[2-(Cyclopropylmethoxy)-5-fluoro-4-methoxyphenyl]-N-{trans-4-[(methoxyacetyl)amino]cyclohexyl}-2-methyl-1H-pyrrolo[3,2-b]pyridine-3-carboxamide], which IC50 is on record?
Its IC50 is under 1 nM.

Which IC50 does the source give for `COCC(=O)N[C@H]1CC[C@@H](NC(=O)c2c(C)[nH]c3c(-c4ccc(F)cc4OCC4CC4)ccnc23)CC1` [Example E18, 7-[2-(Cyclopropylmethoxy)-4-fluorophenyl]-N-{cis-4-[(methoxyacetyl)amino]cyclohexyl}-2-methyl-1H-pyrrolo[3,2-b]pyridine-3-carboxamide] here?
Its IC50 is 1 to 10 nM.

Which IC50 does the source give for `COCC(=O)N[C@H]1CC[C@H](NC(=O)c2c(C)[nH]c3c(-c4ccc(F)cc4OCC4CC4)ccnc23)CC1` [Example E15, 7-[2-(Cyclopropylmethoxy)-4-fluorophenyl]-N-{trans-4-[(methoxyacetyl)amino]cyclohexyl}-2-methyl-1H-pyrrolo[3,2-b]pyridine-3-carboxamide] here?
Its IC50 is under 1 nM.

With `Cc1[nH]c2c(-c3c(OCC4CC4)ccc4c3OCO4)ccnc2c1C(=O)N[C@H]1CC[C@@H](NC(=O)[C@H](C)O)CC1` [Example F05, 7-[5-(Cyclopropylmethoxy)-1,3-benzodioxol-4-yl]-N-(cis-4-{[(2S)-2-hydroxypropanoyl]amino}cyclohexyl)-2-methyl-1H-pyrrolo[3,2-b]pyridine-3-carboxamide] as the compound, how does the IC50 read?
Its IC50 is under 1 nM.

`CC(=O)N1CCC(NC(=O)c2c(C)[nH]c3c(-c4cc(C)ccc4OCC4CC4)ccnc23)CC1` [Example E52, N-(1-Acetylpiperidin-4-yl)-7-[2-(cyclopropylmethoxy)-5-methylphenyl]-2-methyl-1H-pyrrolo[3,2-b]pyridine-3-carboxamide] was tested. Which IC50 did it give?
Its IC50 is 1 to 10 nM.

With `CCC(=O)N[C@H]1CC[C@@H](NC(=O)c2c(C)[nH]c3c(-c4cc(OC)c(F)cc4OCC4CC4)ccnc23)CC1` [Example E68, 7-[2-(Cyclopropylmethoxy)-4-fluoro-5-methoxyphenyl]-2-methyl-N-[cis-4-(propanoylamino)cyclohexyl]-1H-pyrrolo[3,2-b]pyridine-3-carboxamide] as the compound, how does the IC50 read?
Its IC50 is under 1 nM.

How did the IC50 turn out when `COCC(=O)N1CCC(NC(=O)c2c(C)[nH]c3c(-c4cc(OC)c(F)cc4OCC4CC4)ccnc23)CC1` [Example E63, 7-[2-(Cyclopropylmethoxy)-4-fluoro-5-methoxyphenyl]-N-[1-(methoxyacetyl)piperidin-4-yl]-2-methyl-1H-pyrrolo[3,2-b]pyridine-3-carboxamide] was run?
Its IC50 is under 1 nM.

Which IC50 does the source give for `COc1ccc(-c2ccnc3c(C(=O)N[C@H]4CC[C@H](NC(C)=O)CC4)c(C)[nH]c23)c(OCC2CC2)c1` [Example E34, N-[trans-4-(Acetylamino)cyclohexyl]-7-[2-(cyclopropylmethoxy)-4-methoxyphenyl]-2-methyl-1H-pyrrolo[3,2-b]pyridine-3-carboxamide] here?
Its IC50 is under 1 nM.

For `CCC(=O)N1C[C@@H](O)[C@H](NC(=O)c2c(C)[nH]c3c(-c4cc(OC)ccc4OCC4CC4)ccnc23)C1` (relative stereo) [Example E50, 7-[2-(Cyclopropylmethoxy)-5-methoxyphenyl]-N-[(3R*,4R*)-4-hydroxy-1-propanoylpyrrolidin-3-yl]-2-methyl-1H-pyrrolo[3,2-b]pyridine-3-carboxamide], which IC50 is on record?
Its IC50 is 1 to 10 nM.

How did the IC50 turn out when `COc1cc(OCC2CC2)c(-c2ccnc3c(C(=O)N[C@H]4CC[C@H](NC(=O)[C@H](C)O)CC4)c(C)[nH]c23)cc1F` [Example F53, 7-[2-(Cyclopropylmethoxy)-5-fluoro-4-methoxyphenyl]-N-(trans-4-{[(2S)-2-hydroxypropanoyl]amino}cyclohexyl)-2-methyl-1H-pyrrolo[3,2-b]pyridine-3-carboxamide] was run?
The IC50 was under 1 nM.
